Like-named read-outs stand apart in the source and are kept apart here.
Legend:
[1] = Plasma pharmacokinetics of CX-5461 (HPLC-MS/MS, non-compartmental); type: in vivo, human; settings: plasma; for concentration at 72 h / concentration at 0.5 h / concentration at 1 h / concentration at 4 h / concentration at 6 h / concentration at 48 h / concentration at 0 h / concentration at 2 h / concentration at 24 h: individual patients, read-out: Day 1 CX-5461 plasma concentration
Protocol: PK was assessed on all patients in the escalation phase. Venous blood samples were collected on treatment days 1, 8, and 15 (where applicable), and plasma CX-5461 was analyzed with HPLC-MS/MS (schedule details in Supplementary Table 3). PK parameters were calculated with non-compartmental methods. […] The protocol was amended to allow submission of a ctDNA sample and in a further amendment, a mandatory skin biopsy (pre-treatment and cycle 1 day 15) to study phototoxic effects. Fresh tumor biopsies were optional.
Supplementary Table 3. Schedule for collection of CX5461 pharmacokinetics
During infusion at 30 minutes
Immediately post infusion then:
C1D1 30 minutes post infusion
C1D2 24 hours post infusion
C1D3 48 hours post infusion
C1D4 72 hours post infusion
Immediately post infusion then
C1D15 30 minutes post infusion
C1D16 24 hours post infusion
In addition to the specific time points listed above, additional samples were to be collected from […]

[2] = system: BRCA2 and BRCA1-deficient tumor models; settings: in vitro and in vivo, independently of RNA polymerase 1 inhibition; cited from earlier work
[3] = human, intravenous, 100 mg/m2, 100 mg/m2
[4] = human, intravenous, 150 mg/m2, 150 mg/m2
[5] = human, intravenous, 200 mg/m2, 200 mg/m2
[6] = human, intravenous, 250 mg/m2, 250 mg/m2
[7] = human, intravenous, 325 mg/m2, 325 mg/m2
[8] = human, intravenous, 325 mg/m2, B: 325 mg/m2
[9] = human, intravenous, 475 mg/m2, 475 mg/m2
[10] = human, intravenous, 475 mg/m2, B: 475 mg/m2
[11] = human, intravenous, 650 mg/m2, 650 mg/m2

## Cc1cnc(CNC(=O)c2c(=O)c3ccc(N4CCCN(C)CC4)nc3n3c2sc2ccccc23)cn1 [CX-5461]
[1]; human, intravenous, 50 mg/m2, 50 mg/m2
  concentration at 72 h: 13.3 ng/mL
[1]; human, intravenous, 50 mg/m2, Dose level 50 (mg/m2), one patient per datapoint, read-out: Day 1 AUC
  AUC: 3240 ng·h/mL
[1]; [3]
  concentration at 0.5 h: 141 ng/mL
  concentration at 1 h: 115 ng/mL
  concentration at 4 h: 103 ng/mL
  concentration at 6 h: 83.2 ng/mL
  concentration at 48 h: 44.7 ng/mL
  concentration at 72 h: 20 ng/mL
[1]; human, intravenous, 100 mg/m2, Dose level 100 (mg/m2), one patient per datapoint, read-out: Day 1 AUC
  AUC: 5240 ng·h/mL
[1]; human, intravenous, 100 mg/m2, Dose level 100 (mg/m2), one patient per datapoint, read-out: Day 8 or 15 Cmax
  Cmax: 1140 ng/mL
[1]; [4]
  concentration at 0 h: 465 ng/mL
  concentration at 0.5 h: 320 ng/mL
  concentration at 2 h: 206 ng/mL
  concentration at 4 h: 200 ng/mL
  concentration at 6 h: 179 ng/mL
[1]; human, intravenous, 150 mg/m2, Dose level 150 (mg/m2), one patient per datapoint, read-out: Day 1 Cmax
  Cmax: 465 ng/mL
[1]; human, intravenous, 150 mg/m2, Dose level 150 (mg/m2), one patient per datapoint, read-out: Day 8 or 15 AUC
  AUC: 19600 ng·h/mL
[1]; [5]
  concentration at 24 h: 72.8 ng/mL
  concentration at 72 h: 31.4 ng/mL
[1]; [6]
  concentration at 0 h: 867 ng/mL
  concentration at 0.5 h: 420 ng/mL
  concentration at 1 h: 423 ng/mL
  concentration at 2 h: 369 ng/mL
  concentration at 4 h: 233 ng/mL
  concentration at 24 h: 197 ng/mL
  concentration at 48 h: 106 ng/mL
  concentration at 72 h: 85.4 ng/mL
[1]; human, intravenous, 250 mg/m2, Dose level 250 (mg/m2), one patient per datapoint, read-out: Day 1 AUC
  AUC: 12400 ng·h/mL
[1]; human, intravenous, 250 mg/m2, Dose level 250 (mg/m2), one patient per datapoint, read-out: Day 8 or 15 AUC
  AUC: 19000 ng·h/mL
[1]; [7]
  concentration at 0 h: 1310 ng/mL
  concentration at 0.5 h: 446 ng/mL
  concentration at 1 h: 400 ng/mL
  concentration at 2 h: 395 ng/mL
  concentration at 4 h: 244 ng/mL
  concentration at 6 h: 291 ng/mL
  concentration at 24 h: 232 ng/mL
  concentration at 48 h: 138 ng/mL
  concentration at 72 h: 110 ng/mL
[1]; [8]
  concentration at 1 h: 297 ng/mL
  concentration at 2 h: 308 ng/mL
  concentration at 4 h: 252 ng/mL
  concentration at 6 h: 271 ng/mL
  concentration at 48 h: 203 ng/mL
  concentration at 72 h: 107 ng/mL
[1]; human, intravenous, 325 mg/m2, Dose level 325 (mg/m2), one patient per datapoint, read-out: Day 1 AUC
  AUC: 15000 ng·h/mL
[1]; human, intravenous, 325 mg/m2, Dose level 325 (mg/m2), one patient per datapoint, read-out: Day 1 Cmax
  Cmax: 1310 ng/mL
[1]; human, intravenous, 325 mg/m2, Dose level 325 (mg/m2), one patient per datapoint, read-out: Day 8 or 15 AUC
  AUC: 24600 ng·h/mL
[1]; human, intravenous, 325 mg/m2, Dose level 325 (mg/m2), one patient per datapoint, read-out: Day 8 or 15 Cmax
  Cmax: 1440 ng/mL
[1]; human, intravenous, 325 mg/m2, Dose level B: 325 (mg/m2), one patient per datapoint, read-out: Day 1 AUC
  AUC: 25200 ng·h/mL
[1]; human, intravenous, 325 mg/m2, Dose level B: 325 (mg/m2), one patient per datapoint, read-out: Day 1 Cmax
  Cmax: 822 ng/mL
[1]; [9]
  concentration at 0 h: 1540 ng/mL
  concentration at 0.5 h: 475 ng/mL
  concentration at 1 h: 480 ng/mL
  concentration at 2 h: 445 ng/mL
  concentration at 4 h: 293 ng/mL
  concentration at 6 h: 274 ng/mL
  concentration at 24 h: 242 ng/mL
  concentration at 48 h: 140 ng/mL
  concentration at 72 h: 104 ng/mL
[1]; [10]
  concentration at 0.5 h: 890 ng/mL
  concentration at 1 h: 698 ng/mL
  concentration at 4 h: 424 ng/mL
  concentration at 48 h: 336 ng/mL
  concentration at 72 h: 219 ng/mL
[1]; human, intravenous, 475 mg/m2, Dose level 475 (mg/m2), one patient per datapoint, read-out: Day 1 AUC
  AUC: 15800 ng·h/mL
[1]; human, intravenous, 475 mg/m2, Dose level 475 (mg/m2), one patient per datapoint, read-out: Day 1 Cmax
  Cmax: 1850 ng/mL
[1]; human, intravenous, 475 mg/m2, Dose level 475 (mg/m2), one patient per datapoint, read-out: Day 8 or 15 Cmax
  Cmax: 1680 ng/mL
[1]; human, intravenous, 475 mg/m2, RP2D 475 mg/m^2 d1,8,15, read-out: average day 1 Cmax
  Cmax: 1740 ± 801 ng/mL
[1]; human, intravenous, 475 mg/m2, RP2D 475 mg/m^2 d1,8,15, read-out: day 15 Cmax
  Cmax: 2870 ± 2310 ng/mL
[1]; human, intravenous, 475 mg/m2, RP2D 475 mg/m^2 d1,8,15, read-out: elimination half-life (t1/2), day 1 (converted)
  half-life: 61.5 ± 15.5 h
[1]; human, intravenous, 475 mg/m2, RP2D 475 mg/m^2 d1,8,15, read-out: elimination half-life (t1/2), day 15 (converted)
  half-life: 59 ± 11.2 h
[1]; human, intravenous, 475 mg/m^2, 14 days after the prior dose, read-out: mean trough plasma level prior to cycle 2 day 1
  concentration at 14 days: 49.1 ± 34.5 ng/mL
[1]; [11]
  concentration at 0 h: 953 ng/mL
  concentration at 0.5 h: 1040 ng/mL
  concentration at 2 h: 712 ng/mL
  concentration at 4 h: 495 ng/mL
  concentration at 48 h: 222 ng/mL
[1]; human, intravenous, 650 mg/m2, Dose level 650 (mg/m2), one patient per datapoint, read-out: Day 1 AUC
  AUC: 26800 ng·h/mL
[1]
  elimination: eliminated slowly
[2]
  synthetic lethality: synthetically lethal
